US20100041891A1, “AMIDE COMPOUND” (Takeda Pharmaceutical Company Limited, priority 2008, published 2010)

Key:
[1] = target: T1, human GPR52 (Homo sapiens, UniProt Q9Y2T5); assay: Increased intracellular cAMP levels in human GPR52 expression CHO cells; type: cell-based; conditions: 1 μM test compound, 30 min at 37° C., human GPR52 expression CHO (dhfr-) cells; 100% = cAMP level with 1 μM Reference Example 136, 0% = DMSO
T1 construct: expressed in transfected cells; host or cells: CHO (dhfr-) cells
T1 sequence (Q9Y2T5 whole entry): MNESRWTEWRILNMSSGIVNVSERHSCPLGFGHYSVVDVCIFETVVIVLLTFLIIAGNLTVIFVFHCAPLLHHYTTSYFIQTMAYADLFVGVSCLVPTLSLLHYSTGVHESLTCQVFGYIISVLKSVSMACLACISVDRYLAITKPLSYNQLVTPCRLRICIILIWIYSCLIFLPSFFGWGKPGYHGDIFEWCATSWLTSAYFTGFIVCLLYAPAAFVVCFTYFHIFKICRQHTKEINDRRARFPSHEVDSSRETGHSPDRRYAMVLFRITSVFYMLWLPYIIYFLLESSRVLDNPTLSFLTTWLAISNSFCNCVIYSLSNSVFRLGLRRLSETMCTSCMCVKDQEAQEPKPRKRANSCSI
Description: Increased intracellular cAMP levels in human GPR52 expression CHO cells 1×10^4 human GPR52 expression CHO (dhfr-) cells were incubated with 1 μM test compound for 30 min at 37° C. in 30 μL assay buffer (HBSS (containing Ca^2+ and Mg^2+), 0.5% BSA, 100 μM IBMX, 100 μM Ro 20-1724, 5 mM HEPES (pH 7.55)) using an OptiPlate-384 (by PerkinElmer). The intracellular cAMP level was then assayed with an EnVision (by PerkinElmer) according to the protocol of the AlphaScreen cAMP Assay Kit (by PerkinElmer). The GPR52 agonist activity was calculated, assuming the intracellular cAMP level in the presence of 1 μM of 3-(6-(2-(3,4-dimethoxyphenyl)ethoxy)pyridine-2-yl)-N-(2-pyrrolidin-1-ylethyl)benzamide (Reference Example 136) to be 100% and assuming the intracellular cAMP level when DMSO was added instead of test compound to be 0%.

[2] = system: methamphetamine-induced locomotor hyperactivity in mice; assay: Inhibition of methamphetamine-induced locomotor hyperactivity; type: in vivo; conditions: male ICR mice, test compound 30 mg/kg orally, 60 min later methamphetamine 2 mg/kg subcutaneous, locomotor activity 90 min after methamphetamine, versus vehicle group
Description: Compounds of the present invention can be evaluated by assessing the inhibition of methamphetamine-induced locomotor hyperactivity in mice. The method of Okuyama et al was modified to test the inhibition of methamphetamine-induced locomotor hyperactivity (Life Science, Vol. 65, pages 2109-2125 (1999)).
Locomotor activity was measured using a 32-channel locomotor activity measurement device MDC-LT (by BrainScience Idea Co., Ltd.), which emits infrared beams from the top of a cage (30×40×20 cm). 6- to 8-week old male ICR mice were acclimated for at least 45 min in the measurement cages, and then either test compound (30 mg/kg) dissolved in vehicle (0.5% methylcellulose aqueous solution) or the vehicle alone were orally administered. This oral administration was followed 60 min later by subcutaneous administration of methamphetamine (2 mg/kg).
90 min after administration of methamphetamine, the number of times the laboratory animals passed through the infrared beams emitted inside the measurement cages was measured to quantify locomotor activity. The following equation was used to calculate the rate at which methamphetamine-induced locomotor hyperactivity was inhibited (activity inhibition rate (%)).
Activity inhibition rate (%)={1−(locomotor activity after treatment with methamphetamine in test compound treatment group÷locomotor activity after treatment with methamphetamine in vehicle treatment group)}×100

SMILES | GPR52 agonist activity (%) [1] [%] | Activity Inhibition Rate (%) [2] [%] | melting point [°C]
CC(C)n1cc(Cc2cc3cccc(-c4cccc(C(=O)NCCO)c4)c3s2)ccc1=O [Working Example 292, N-(2-Hydroxyethyl)-3-[2-[[1-(1-methylethyl)-6-oxo-1,6-dihydropyridin-3-yl]methyl]-1-benzothiophen-7-yl]benzamide] | 61 | – | –
NC(=O)CNC(=O)c1cccc(-c2cccc3cc(Cc4ccc(F)c(Cl)c4)sc23)c1 [Working Example 174, N-(2-Amino-2-oxoethyl)-3-[2-(3-chloro-4-fluorobenzyl)-1-benzothiophen-7-yl]benzamide] | 90 | – | –
O=C(NCCO)c1cccc(-c2cncc3cc(Cc4cccc(C(F)(F)F)c4)oc23)c1 [Working Example 413, N-(2-Hydroxyethyl)-3-[2-[3-(trifluoromethyl)benzyl]furo[3,2-c]pyridin-7-yl]benzamide] | 83 | – | –
N#CCCNC(=O)c1cccc(-c2nccc3oc(Cc4cccc(C(F)(F)F)c4)cc23)c1 [Working Example 23, N-(2-Cyanoethyl)-3-[2-[3-(trifluoromethyl)benzyl]furo[3,2-c]pyridin-4-yl]benzamide] | 75 | – | –
Cc1c(Cc2cccc(C(F)(F)F)c2)sc2c(-c3cccc(C(=O)NCCO)c3)cccc12 [Working Example 191, N-(2-Hydroxyethyl)-3-[3-methyl-2-[3-(trifluoromethyl)benzyl]-1-benzothiophen-7-yl]benzamide] | 94 | 65 | –
O=C(NCCO)c1cc(F)cc(-c2ccc(F)c3cc(Cc4cccc(C(F)(F)F)c4)sc23)c1 [Working Example 271, 3-Fluoro-5-[4-fluoro-2-[3-(trifluoromethyl)benzyl]-1-benzothiophen-7-yl]-N-(2-hydroxyethyl)benzamide] | 94 | – | –
O=C(NCCO)c1cccc(-c2cccc3cc(Cc4cc(F)cc(Cl)c4)sc23)n1 [Working Example 222, 6-[2-(3-Chloro-5-fluorobenzyl)-1-benzothiophen-7-yl]-N-(2-hydroxyethyl)pyridine-2-carboxamide] | 62 | – | –
O=C(NCCO)c1cccc(-c2cccc3oc(Cc4cccc(C(F)(F)F)c4)cc23)c1 [Working Example 7, N-(2-Hydroxyethyl)-3-[2-[3-(trifluoromethyl)benzyl]-1-benzofuran-4-yl]benzamide] | 82 | 89 | –
NC(=O)CNC(=O)c1cccc(-c2cccc3sc(Cc4cccc(C(F)(F)F)c4)cc23)c1 [Working Example 165, N-(2-Amino-2-oxoethyl)-3-[2-[3-(trifluoromethyl)benzyl]-1-benzothiophen-4-yl]benzamide] | 108 | – | –
NC(=O)c1cccc(-c2cccc3cc(COc4cccc(C(F)(F)F)c4)sc23)c1 [Working Example 184, 3-(2-[[3-(Trifluoromethyl)phenoxy]methyl]-1-benzothiophen-7-yl]benzamide] | 82 | – | –
O=C(NCCO)c1ccnc(-c2cccc3cc(Cc4cccc(C(F)(F)F)c4)sc23)c1 [Working Example 198, N-(2-Hydroxyethyl)-2-[2-[3-(trifluoromethyl)benzyl]-1-benzothiophen-7-yl]pyridine-4-carboxamide] | 88 | 45 | –
NC(=O)CNC(=O)c1cccc(-c2cccc3c(F)c(Cc4cccc(C(F)(F)F)c4)sc23)c1 [Working Example 405, N-(2-Amino-2-oxoethyl)-3-[3-fluoro-2-[3-(trifluoromethyl)benzyl]-1-benzothiophen-7-yl]benzamide] | 113 | – | –
NC(=O)CNC(=O)c1cccc(-c2cccc3sc(Cc4cccc(C(F)(F)F)c4)nc23)c1 [Working Example 252, N-(2-Amino-2-oxoethyl)-3-[2-[3-(trifluoromethyl)benzyl]-1,3-benzothiazol-4-yl]benzamide] | 80 | – | –
O=C1NCc2c1cccc2-c1cccc2cc(Cc3cccc(C(F)(F)F)c3)sc12 [Working Example 326, 4-[2-[3-(Trifluoromethyl)benzyl]-1-benzothiophen-7-yl]-2,3-dihydro-1H-isoindole-1-one] | 92 | – | –
Cn1c(Cc2cccc(C(F)(F)F)c2)nc2c(-c3cccc(C(=O)NCCC#N)c3)cccc21 [Working Example 88, N-(2-Cyanoethyl)-3-[1-methyl-2-[3-(trifluoromethyl)benzyl]-1H-benzimidazol-4-yl]benzamide] | 59 | 37 | –
N#CCCNC(=O)c1ccnc(-c2cccc3oc(Cc4cccc(C(F)(F)F)c4)cc23)c1 [Working Example 21, N-(2-Cyanoethyl)-2-[2-[3-(trifluoromethyl)benzyl]-1-benzofuran-4-yl]isonicotinamide] | 74 | – | –
COCCNC(=O)c1cccc(-c2ccc(F)c3cc(Cc4cccc(S(C)(=O)=O)c4)sc23)c1 [Working Example 159, 3-[4-Fluoro-2-[3-(methylsulfonyl)benzyl]-1-benzothiophen-7-yl]-N-(2-methoxyethyl)benzamide] | 80 | – | –
NC(=O)CNC(=O)c1cccc(-c2ccc(F)c3cc(Cc4cccc(C(F)(F)F)c4)sc23)c1 [Working Example 230, N-(2-Amino-2-oxoethyl)-3-[4-fluoro-2-[3-(trifluoromethyl)benzyl]-1-benzothiophen-7-yl]benzamide] | 85 | 58 | –
O=C(O)CNC(=O)c1cccc(-c2cccc3oc(Cc4cccc(C(F)(F)F)c4)cc23)c1 [Working Example 303, N-[(3-[2-[3-(Trifluoromethyl)benzyl]-1-benzofuran-4-yl]phenyl)carbonyl]glycine] | – | – | 89 to 94
O=C(NCCO)c1cccc(-c2cccn3c(=O)n(Cc4cccc(C(F)(F)F)c4)nc23)c1 [Working Example 99, N-(2-Hydroxyethyl)-3-[3-oxo-2-[3-(trifluoromethyl)benzyl]-2,3-dihydro[1,2,4]triazolo[4,3-a]pyridin-8-yl]benzamide] | 67 | – | –
NC(=O)CNC(=O)c1cncc(-c2cccc3cc(Cc4cc(F)cc(Cl)c4)sc23)c1 [Working Example 221, N-(2-Amino-2-oxoethyl)-5-[2-(3-chloro-5-fluorobenzyl)-1-benzothiophen-7-yl]pyridine-3-carboxamide] | 81 | – | –
CC(C)OCCNC(=O)c1cccc(-c2cccc3cc(Cc4cc(F)cc(Cl)c4)sc23)c1 [Working Example 360, 3-[2-(3-Chloro-5-fluorobenzyl)-1-benzothiophen-7-yl]-N-[2-(1-methylethoxy)ethyl]benzamide] | 79 | 41 | –
N#CCCNC(=O)c1cccc(-c2cccc3nn(Cc4ccc(F)c(Cl)c4)cc23)c1 [Working Example 65, 3-[2-(3-Chloro-4-fluorobenzyl)-2H-indazol-4-yl]-N-(2-cyanoethyl)benzamide] | 75 | – | –
COCCNC(=O)c1cccc(-c2cccc3cc(Cc4cc(F)cc(Cl)c4)sc23)c1 [Working Example 179, 3-[2-(3-Chloro-5-fluorobenzyl)-1-benzothiophen-7-yl]-N-(2-methoxyethyl)benzamide] | 89 | – | –
O=C(NCCO)c1cccc(-c2ccnc3cc(Cc4cccc(C(F)(F)F)c4)sc23)c1 [Working Example 265, N-(2-hydroxyethyl)-3-[2-[3-(trifluoromethyl)benzyl]thieno[3,2-b]pyridin-7-yl]benzamide] | 93 | – | –
